Key:
Assay in all cases: relative viability (nuclei count vs DMSO), 5 days (fraction); higher = more cells survive
[1] = compound: COC1=CC=C(C=C1)CN2C=CC3=C2C=C(C=C3)C(=O)NO + CS(=O)(=O)CCNCc1ccc(-c2ccc3ncnc(Nc4ccc(OCc5cccc(F)c5)c(Cl)c4)c3c2)o1 [Lapatinib] (partner 2 µM)
Summary of the method: (§1)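 Cells from lung cancer lines were seeded into 1536-well plates and, one day later, dosed by pin tool. Treatments were either a single drug or a fixed dose of an anchor drug with five library-drug doses (not always all listed) in √10 steps. After 5 days, nuclei were stained in a one-step fixation (final 0.05% Triton X-100, 1% formaldehyde, 1 ug/ml Hoechst) and counted on 4× images, and relative viability is the treated-to-vehicle nuclei ratio, as the median of duplicate plates.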

[2] = compound: COC1=CC=C(C=C1)CN2C=CC3=C2C=C(C=C3)C(=O)NO + O=C(c1cc(Cc2n[nH]c(=O)c3ccccc23)ccc1F)N1CCN(C(=O)C2CC2)CC1 [Olaparib] (partner 8 µM)
Summary of the method: as §1

Veliparib + Tozasertib = compound: C[C@]1(c2nc3c(C(N)=O)cccc3[nH]2)CCCN1 [Veliparib] + Cc1cc(Nc2cc(N3CCN(C)CC3)nc(Sc3ccc(NC(=O)C4CC4)cc3)n2)n[nH]1 [Tozasertib] (partner 0.1 µM)
Summary of the method: as §1

Veliparib + Decitabine = compound: C[C@]1(c2nc3c(C(N)=O)cccc3[nH]2)CCCN1 [Veliparib] + Nc1ncn([C@H]2C[C@H](O)[C@@H](CO)O2)c(=O)n1 [Decitabine] (partner 2 µM)
Summary of the method: as §1

Cell Line	relative viability ([1]; first compound 0.08 µM)	relative viability ([1]; first compound 0.253 µM)	relative viability ([1]; first compound 0.8 µM)	relative viability ([1]; first compound 2.53 µM)	relative viability ([1]; first compound 8 µM)	relative viability ([2]; first compound 0.08 µM)	relative viability ([2]; first compound 0.253 µM)	relative viability ([2]; first compound 0.8 µM)	relative viability ([2]; first compound 2.53 µM)	relative viability ([2]; first compound 8 µM)	relative viability (Veliparib + Tozasertib; first compound 0.02 µM)	relative viability (Veliparib + Tozasertib; first compound 0.06325 µM)	relative viability (Veliparib + Tozasertib; first compound 0.2 µM)	relative viability (Veliparib + Tozasertib; first compound 0.6325 µM)	relative viability (Veliparib + Tozasertib; first compound 2 µM)	relative viability (Veliparib + Decitabine; first compound 0.02 µM)	relative viability (Veliparib + Decitabine; first compound 0.06325 µM)	relative viability (Veliparib + Decitabine; first compound 0.2 µM)	relative viability (Veliparib + Decitabine; first compound 0.6325 µM)	relative viability (Veliparib + Decitabine; first compound 2 µM)
NCI-H23	0.383	1.21	1.06	1.01	0.88	0.302	0.282	0.314	0.322	0.304	0.38	0.429	0.434	0.381	0.426	0.318	0.289	0.306	0.296	0.334
NCI-H322M	–	0.628	0.644	0.293	0.499	–	–	0.805	0.845	0.621	–	0.425	0.416	0.499	0.422	–	0.608	0.682	0.656	0.655
NCI-H358	–	0.472	0.437	0.394	0.397	–	0.614	0.59	0.544	0.49	0.121	0.107	0.106	0.106	0.102	0.208	0.196	0.181	0.156	0.18
NCI-H460	0.118	1.04	0.953	0.907	0.931	0.426	0.457	0.401	0.465	0.397	0.512	0.438	0.334	0.478	0.308	0.407	0.255	0.203	0.212	0.132
NCI-H520	0.425	0.891	0.943	0.886	0.803	0.342	0.362	0.327	0.339	0.286	0.337	0.488	0.439	0.47	0.503	0.427	0.404	0.414	0.375	0.35
NCI-H596	0.976	1.01	1.25	1.11	0.999	0.66	0.778	0.735	0.805	0.725	0.838	0.774	0.99	0.859	0.811	1.14	1	0.969	0.814	0.965
NCI-H647	0.626	1.07	1.04	1.1	0.97	0.557	0.537	0.422	0.495	0.547	0.28	0.346	0.263	0.357	0.254	0.376	0.346	0.298	0.299	0.26
NCI-H650	0.601	0.837	0.927	0.732	0.759	0.351	0.417	0.452	0.353	0.418	0.809	0.683	0.773	0.686	0.799	0.309	0.283	0.265	0.278	0.317
NCI-H661	–	0.471	0.471	0.443	0.402	–	0.726	0.778	0.67	0.66	0.349	0.363	0.336	0.329	0.388	0.555	0.545	0.481	0.424	0.443
NCI-H727	0.775	0.927	0.868	0.942	0.915	0.68	0.709	0.755	0.649	0.622	0.672	0.648	0.573	0.495	0.654	0.865	0.758	0.856	0.706	0.865
NCI-H838	–	1.01	0.98	1.03	0.873	0.622	0.843	0.796	0.735	0.696	0.344	0.28	0.285	0.256	0.25	0.409	0.453	0.408	0.32	0.426
NCI-H1355	0.247	1.1	0.959	0.978	0.934	0.419	0.807	0.773	0.775	0.727	–	0.534	0.559	0.507	0.539	0.388	0.29	0.371	0.328	0.325
NCI-H1395	0.674	0.851	0.937	0.93	0.778	–	0.419	0.49	0.496	0.436	0.684	0.787	0.754	0.656	0.706	0.704	0.626	0.686	0.606	0.652
NCI-H1437	0.23	0.84	0.877	0.886	0.8	0.603	0.635	0.626	0.676	0.618	0.384	0.438	0.43	0.406	0.399	0.606	0.526	0.464	0.533	0.497
NCI-H1650	0.254	0.76	0.847	0.86	0.451	0.753	0.813	0.775	0.762	0.78	–	0.441	0.486	0.448	0.526	0.256	0.326	0.433	0.43	0.308
NCI-H1651	0.425	0.886	0.857	0.767	0.746	0.168	0.158	0.194	0.182	0.179	0.864	0.654	0.646	0.604	0.545	0.549	0.43	0.348	0.358	0.32
NCI-H1666	0.428	0.778	0.821	0.649	0.716	0.746	0.737	0.745	0.682	0.818	0.582	0.582	0.598	0.547	0.62	0.716	0.596	0.764	0.645	0.701
NCI-H1734	–	1.14	1.07	1.04	0.916	–	0.325	0.63	0.55	0.676	0.309	0.262	0.284	0.268	0.269	–	0.374	0.389	0.33	0.35
NCI-H1755	0.715	1.07	1	1.01	1.02	0.77	0.89	0.831	0.955	0.867	0.557	0.514	0.569	0.571	0.552	0.675	0.709	0.629	0.595	0.707
NCI-H1793	0.343	0.751	0.688	0.705	0.598	–	0.911	0.898	0.893	0.865	0.364	0.349	0.391	0.371	0.41	0.511	0.47	0.445	0.429	0.424
NCI-H1915	0.301	0.977	1.01	1	0.958	0.233	0.26	0.234	0.259	0.24	0.402	0.426	0.413	0.409	0.394	0.23	0.243	0.267	0.242	0.266
NCI-H1944	–	0.834	0.86	0.817	0.701	–	0.425	0.422	0.423	0.374	0.261	0.253	0.252	0.251	0.249	0.408	0.398	0.353	0.41	0.407
NCI-H1975	0.691	0.845	0.832	0.875	0.78	0.77	0.815	0.697	0.678	0.785	0.932	0.729	0.775	0.699	0.723	0.392	0.447	0.362	0.307	0.328
NCI-H1993	0.639	0.857	0.843	0.864	0.741	0.699	1.31	1.25	1.06	0.885	0.612	0.583	0.671	0.627	0.598	–	0.526	0.614	0.541	0.567
NCI-H2009	0.432	0.886	1.25	0.954	0.767	0.682	0.694	0.678	0.643	0.658	0.798	0.753	0.741	0.745	0.854	0.344	0.37	0.366	0.329	0.361
NCI-H2023	0.155	0.792	0.784	0.864	0.601	0.453	0.475	0.464	0.433	0.413	0.518	0.376	0.342	0.431	0.367	0.215	0.152	0.172	0.141	0.13
NCI-H2085	0.336	0.817	0.798	0.81	0.708	0.803	0.723	0.842	0.777	0.768	0.737	0.888	0.75	0.738	0.849	0.519	0.453	0.486	0.48	0.498

Reference: the supplement of paper PMC10307832
